Assays:
Cop-1-reactive T cells = assay: ELISA of BDNF secreted by Cop-1-reactive T cells; assay type: cell-based, Lewis rats; details: 48 h stimulation with antigen
Description: (iv) T-cell lines. Ten days after Cop-1 immunization, T-cell lines were generated from draining lymph node cells obtained from Lewis rats immunized with Cop-1 emulsified in CFA. The lymph nodes were surgically removed, dissociated, washed, and then activated with the antigen (10 μg/ml) in stimulation medium as previously reported (Kipnis et al., 2000). The T-cells lines were expanded by repeated stimulation and propagation.
(v) Enzyme-linked immunosorbent assay. T cell-reactive Cop-1 cells were grown for 1 week in a propagation medium, then washed with PBS and re-suspended in stimulation medium. The cultured T cells (0.5×10^6 cells/mL) were then incubated, in the presence of irradiated thymocytes (10^7 cells/mL), with concanavalin A (Con A; 1.25 μg/mL), myelin basic protein (MRP; 10 μg/ml), Cop-1 (10 μg/mL), ovalbumin (OVA; 10 μg/mL), or no antigen, in stimulation medium. After 48 h the cells were centrifaged and their supernatants were collected and sampled. Concentrations of brain-derived neurotrophic factor (BDNF) in the samples were determined with a sensitive sandwich ELISA. In brief 96-well flat-bottomed plates were coated with a chicken anti-human BDNF antibody (Promega, Madison, Wis.) in 0.025 M NaHCO3 and 0.025 M Na2CO3 (pH 8.2). Recombinant human BDNF (used as a standard; Research Diagnostics, Flanders, N.J.) was used in serial dilutions in blocking solution containing 3% bovine serum albumin, 0.05% polyoxyethylene-sorbitan monolaurate (Tween-20), and 1% fetal calf serum in PBS (pH 8.2). Bound BDNF was detected by incubating the plates with a mouse anti-human BDNF antibody (Research Diagnostics) and then with peroxidase-conjugated goat anti-mouse IgG (Jackson ImmunoResearch, West Grove, Pa.) in blocking solution. The plates were developed using a 3,3′,5,5′-tetramethylbenzidine liquid substrate system (Sigma-Aldrich). The reaction was stopped by adding 1M H3PO4, and the optical density was determined at 450 nm. Results for each experiment were calculated as the amount of secreted BDNF per 1 mL of sample, after subtraction of background levels of the irradiated thymocytes incubated with the stimulation medium.
Cop-1-reactive T cells were cultured for 48 h with Cop-1, MBP, ovalbumin, or concanavalin A in stimulation medium. T cell supernatants were collected and subjected to sandwich ELISA. […] Values are mean values (pg/ml) +/− SE (from three independent experiments) of the amounts of BDNF secreted by Cop-1-specific T cells in response to stimulation by various antigens.

[1] = test system: Treg (CD4+CD25+) co-cultured with effector T cells (Teff); assay: Inhibition assay (co-culturing of Teff with Treg), [3H]-thymidine incorporation; assay type: cell-based, mice; details: activated Treg incubated 2 h with Cop-1 20 μg/ml, Cop-1 20 μg/ml also added to co-culture
Description: (xviii) Purification of CB4^+CB25^+ and CD4^+CB25^− T cells. Lymph nodes were harvested and mashed. T cells were enriched by negative selection and purified on CD3-cell columns (MTCC-25; R&D Systems). The enriched T cells were incubated with and-CD8 raicrobeads (Miltenyi Biotec, Bergiseh Gladbach, Germany), and negatively selected CD4^+ T cells were incubated with PE-conjugated anti-CD25 (30 μg/10^8 cells) in PBS/2% fetal calf serum. They were then washed and incubated with anti-PE microbeads (Miltenyi Biotec) and subjected to magnetic separation with AutoMACS (Miltenyi Biotec). The retained cells were eluted from the column as purified CD4^+CD25^+ cells. The negative fraction consisted of CD4^+CD25^− T cells. Cell purity was chceked by FACSort (Becton-Dickinson) and typically ranged from 88% to 95%. Purified cells were cultured in 24-well plates (1 ml).
(xix) Activation of CB4^+CD25^+ regulatory T cells. […]
(xx) Inhibition assay (co-culturing of Teff with Treg). […] After the cells were harvested, their analyzed [^3H]-thymidine content was analyzed by the use of a […].
Naïve Teff cells (50×10^3 cells/well) were co-cultured with decreasing numbers ([…] cells/well) of Treg cells that have been activated for 24 h with anti-CD3 and mrIL 2. […] Recorded values are from one representative experiment out of three and are expressed as means±SD of 4 replicates.

[2] = test system: rats exposed to psychotomimetic drugs; assay: Vaccination after exposure to psychotomimetic drugs; assay type: in vivo; details: vaccination after drug exposure, not shown

With Copolymer 1 [Cop-1] the “Secretion of BDNF by Cop-1-reactive T cells compared with unstimulated T cells” value (Cop-1-reactive T cells) was “significantly increased”, the “BDNF secreted by Cop-1-reactive T cells (mean)” value (Cop-1-reactive T cells; mean of three independent experiments, no antigen 400) was 1220 pg/mL and the “Treg-mediated suppression of Teff proliferation” value [1] was “alleviated the suppression of Teff compared to the control”. For the same substance, the “Effect of vaccination given after psychotomimetic drugs” value [2] was “beneficial”.
